From ChEMBL document CHEMBL1201862, “PubChem BioAssay data set” (2004)
The source made the active and inactive calls.

How the values were obtained:
INS1 = assay: INS-1E survival protection against cytokine death – cell-based, luminescence, retest, dose response (AID 449756); format: functional; conditions: Rattus norvegicus;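 further: cell death triggered by IL-1 beta plus TNF-alpha plus IFN-gamma mixture; protective hits raise ATP signal compared with cytokine alone wells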
Cytochrome P450 2C19 = Cytochrome P450 2C19 (Homo sapiens, UniProt P33261); assay: Cytochrome panel assay with activity outcomes. Panel member name: p450-cyp2c19 Compounds with AC50 equal or less than 10 uM are considered active; format: functional; conditions: read-out: AC50
Chain of Cytochrome P450 2C19 (P33261 whole entry): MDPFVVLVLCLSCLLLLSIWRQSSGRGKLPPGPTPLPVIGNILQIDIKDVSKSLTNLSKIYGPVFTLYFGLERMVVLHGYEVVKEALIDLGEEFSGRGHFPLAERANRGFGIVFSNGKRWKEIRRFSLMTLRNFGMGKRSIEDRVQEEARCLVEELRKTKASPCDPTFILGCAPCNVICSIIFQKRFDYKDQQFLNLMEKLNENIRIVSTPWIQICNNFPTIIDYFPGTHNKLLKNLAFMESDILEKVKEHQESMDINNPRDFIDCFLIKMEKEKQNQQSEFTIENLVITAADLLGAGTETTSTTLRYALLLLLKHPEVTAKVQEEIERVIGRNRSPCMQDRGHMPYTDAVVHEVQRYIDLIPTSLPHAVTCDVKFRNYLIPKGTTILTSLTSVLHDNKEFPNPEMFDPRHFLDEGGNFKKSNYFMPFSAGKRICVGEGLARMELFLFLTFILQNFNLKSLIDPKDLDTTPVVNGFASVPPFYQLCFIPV

Cytochrome P450 1A2 = molecular target: T1, Cytochrome P450 1A2 (Homo sapiens, UniProt P05177);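 further: PubChem cytochrome P450 panel assay, CYP1A2 panel member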
T1 sequence (P05177 whole entry): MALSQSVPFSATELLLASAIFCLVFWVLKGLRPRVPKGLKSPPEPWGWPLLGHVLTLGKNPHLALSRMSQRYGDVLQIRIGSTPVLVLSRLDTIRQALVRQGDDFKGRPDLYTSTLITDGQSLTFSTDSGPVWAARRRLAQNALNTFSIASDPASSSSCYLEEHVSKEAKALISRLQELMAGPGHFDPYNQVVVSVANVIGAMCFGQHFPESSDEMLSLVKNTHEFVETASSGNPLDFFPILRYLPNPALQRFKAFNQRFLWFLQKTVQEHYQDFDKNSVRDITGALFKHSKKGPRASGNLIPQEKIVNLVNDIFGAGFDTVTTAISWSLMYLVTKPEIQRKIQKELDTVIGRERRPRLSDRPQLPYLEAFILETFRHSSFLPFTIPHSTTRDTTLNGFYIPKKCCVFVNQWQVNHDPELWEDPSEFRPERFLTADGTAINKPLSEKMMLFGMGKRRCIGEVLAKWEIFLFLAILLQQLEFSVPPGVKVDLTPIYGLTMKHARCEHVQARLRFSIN

[1] = molecular target: T2, Corticotropin-releasing factor receptor 2/Corticotropin-releasing factor-binding protein (Homo sapiens, UniProt P24387+Q13324); assay: Dose Response confirmation of uHTS hits for small molecule antagonists of the CRF-binding protein and CRF-R2 receptor complex.; format: functional; conditions: read-out: IC50_Mean
T2 sequence (Q13324 whole entry): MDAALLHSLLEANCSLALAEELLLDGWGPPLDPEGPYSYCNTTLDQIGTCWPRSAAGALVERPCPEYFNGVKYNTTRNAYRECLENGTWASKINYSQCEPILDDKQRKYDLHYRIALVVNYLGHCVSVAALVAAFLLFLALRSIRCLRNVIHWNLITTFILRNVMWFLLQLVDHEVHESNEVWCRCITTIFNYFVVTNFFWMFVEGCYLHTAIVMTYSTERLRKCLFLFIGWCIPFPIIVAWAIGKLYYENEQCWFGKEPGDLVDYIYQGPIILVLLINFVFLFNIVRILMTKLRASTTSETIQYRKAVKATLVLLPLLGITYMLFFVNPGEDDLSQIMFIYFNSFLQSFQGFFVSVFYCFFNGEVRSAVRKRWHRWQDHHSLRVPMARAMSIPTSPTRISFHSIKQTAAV
T2 sequence (P24387 whole entry): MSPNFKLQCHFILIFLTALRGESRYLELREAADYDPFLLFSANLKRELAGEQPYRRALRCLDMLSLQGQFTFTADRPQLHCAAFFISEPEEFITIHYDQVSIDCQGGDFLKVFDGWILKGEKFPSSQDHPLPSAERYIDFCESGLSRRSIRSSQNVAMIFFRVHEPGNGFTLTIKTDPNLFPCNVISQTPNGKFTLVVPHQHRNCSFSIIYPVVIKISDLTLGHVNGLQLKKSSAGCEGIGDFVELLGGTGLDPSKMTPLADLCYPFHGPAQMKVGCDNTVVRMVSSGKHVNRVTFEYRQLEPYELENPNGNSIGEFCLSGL

[2] = molecular target: T2, Corticotropin-releasing factor receptor 2/Corticotropin-releasing factor-binding protein; assay: activators of CRF receptor 2 with binding protein – uHTS hits, confirmation (AID 602473); format: functional; conditions: read-out: EC50_Mean
Cytochrome P450 2D6 = Cytochrome P450 2D6 (Homo sapiens, UniProt P10635);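 further: CYP2D6 member of a cytochrome P450 panel assay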
Chain of Cytochrome P450 2D6 (P10635 whole entry): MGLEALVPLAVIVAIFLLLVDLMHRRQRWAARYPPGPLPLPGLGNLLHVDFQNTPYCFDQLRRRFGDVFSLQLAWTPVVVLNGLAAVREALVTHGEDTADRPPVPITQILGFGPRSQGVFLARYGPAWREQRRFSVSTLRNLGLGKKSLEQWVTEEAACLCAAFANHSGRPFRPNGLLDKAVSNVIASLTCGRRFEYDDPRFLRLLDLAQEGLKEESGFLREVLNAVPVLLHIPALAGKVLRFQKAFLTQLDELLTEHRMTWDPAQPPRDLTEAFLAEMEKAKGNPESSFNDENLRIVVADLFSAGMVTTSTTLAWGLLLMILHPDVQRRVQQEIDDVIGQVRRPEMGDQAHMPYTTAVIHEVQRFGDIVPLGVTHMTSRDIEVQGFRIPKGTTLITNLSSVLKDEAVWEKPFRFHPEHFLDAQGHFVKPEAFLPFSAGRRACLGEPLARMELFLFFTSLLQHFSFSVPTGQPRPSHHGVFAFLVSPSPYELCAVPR

Cytochrome P450 2C9 = Cytochrome P450 2C9 (Homo sapiens, UniProt P11712)
Chain of Cytochrome P450 2C9 (P11712 whole entry): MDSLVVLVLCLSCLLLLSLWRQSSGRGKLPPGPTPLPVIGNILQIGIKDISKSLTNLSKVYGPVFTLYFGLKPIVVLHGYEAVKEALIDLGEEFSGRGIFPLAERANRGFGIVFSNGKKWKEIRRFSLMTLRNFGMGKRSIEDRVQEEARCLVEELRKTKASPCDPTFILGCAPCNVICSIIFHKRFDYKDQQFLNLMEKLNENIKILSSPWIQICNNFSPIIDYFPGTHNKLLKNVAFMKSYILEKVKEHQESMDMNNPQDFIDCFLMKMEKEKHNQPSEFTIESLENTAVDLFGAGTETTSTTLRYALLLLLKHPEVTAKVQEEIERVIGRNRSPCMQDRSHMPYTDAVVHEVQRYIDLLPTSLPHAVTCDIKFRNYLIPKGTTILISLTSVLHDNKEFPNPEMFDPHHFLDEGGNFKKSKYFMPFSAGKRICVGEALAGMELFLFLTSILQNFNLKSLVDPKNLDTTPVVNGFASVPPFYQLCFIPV

[3] = Luminescence Cell-Based Dose Retest to Confirm Inhibitors of Cancer Stem Cells. [Related pubchem assays (depositor defined):AID2717, AID2721]; format: functional; conditions: Homo sapiens
Cytochrome P450 3A4 = Cytochrome P450 3A4 (Homo sapiens, UniProt P08684);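 further: CYP3A4 tested as one member of a cytochrome P450 panel screen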
Chain of Cytochrome P450 3A4 (P08684 whole entry): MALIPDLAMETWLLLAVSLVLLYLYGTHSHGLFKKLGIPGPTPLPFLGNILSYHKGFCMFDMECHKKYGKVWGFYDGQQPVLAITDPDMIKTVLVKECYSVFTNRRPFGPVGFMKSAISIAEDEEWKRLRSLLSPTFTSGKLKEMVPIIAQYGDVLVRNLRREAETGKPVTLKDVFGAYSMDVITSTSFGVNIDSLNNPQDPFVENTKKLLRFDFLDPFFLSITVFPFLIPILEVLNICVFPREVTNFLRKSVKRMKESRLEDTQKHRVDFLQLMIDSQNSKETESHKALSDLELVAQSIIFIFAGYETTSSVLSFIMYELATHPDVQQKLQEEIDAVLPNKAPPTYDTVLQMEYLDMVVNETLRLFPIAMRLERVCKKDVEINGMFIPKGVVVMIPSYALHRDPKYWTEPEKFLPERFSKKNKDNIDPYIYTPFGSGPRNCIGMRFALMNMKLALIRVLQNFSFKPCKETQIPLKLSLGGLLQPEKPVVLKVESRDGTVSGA

[4] = molecular target: T3, Heat shock factor protein 1 (Mus musculus, UniProt P38532); assay: decrease of HSF1-responsive luciferase luminescence – cell-based, NIH3T3, dose retest, confirmation (AID 2382); format: functional;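 further: NIH3T3 fibroblasts with HSF1-driven luciferase reporter stressed by proteasome inhibitor MG132; luminescence from HSF1-driven luciferase expression after 8 hours of MG132 stress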
T3 sequence (P38532 whole entry): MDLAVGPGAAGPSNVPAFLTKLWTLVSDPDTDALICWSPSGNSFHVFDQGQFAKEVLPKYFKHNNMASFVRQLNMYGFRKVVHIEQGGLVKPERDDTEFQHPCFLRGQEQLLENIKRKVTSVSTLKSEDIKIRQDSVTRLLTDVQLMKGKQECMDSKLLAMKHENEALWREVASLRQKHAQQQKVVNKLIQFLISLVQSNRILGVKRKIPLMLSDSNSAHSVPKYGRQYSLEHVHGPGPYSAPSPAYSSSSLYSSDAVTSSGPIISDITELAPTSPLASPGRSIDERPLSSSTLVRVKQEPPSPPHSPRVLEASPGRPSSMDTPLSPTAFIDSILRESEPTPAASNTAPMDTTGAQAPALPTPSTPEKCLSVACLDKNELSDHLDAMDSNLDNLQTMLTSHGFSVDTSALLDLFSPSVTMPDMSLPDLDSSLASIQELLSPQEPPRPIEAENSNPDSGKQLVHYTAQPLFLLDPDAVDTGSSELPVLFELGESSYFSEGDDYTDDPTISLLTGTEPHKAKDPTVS

[5] = tested on: Streptococcus sp. 'group A'; assay: Streptococcus pyogenes SK(-)GAS viability under kanamycin – luminescence, BacTiterGlo, confirmation, counter-screen for streptokinase expression inhibitor project, dose response (AID 1900); format: functional, organism-based
Streptococcus = assay: GAS UMAA2166 growth inhibition – luminescence, BacTiterGlo, counter-screen for streptokinase expression inhibitor project, dose response (AID 1915); format: functional, organism-based;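 further: potency for reduction of bacterial viability or growth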

O=C(c1cc(-c2cccc(Cl)c2)nc2ccccc12)N1CCN(c2ccccn2)CC1
AC50 (INS1): 14.8 µM (active)

O=S(=O)(O)c1ccc2c(/N=N\c3c(O)ccc4ccccc34)cccc2c1
AC50 (Cytochrome P450 2C19): 0.631 µM (inconclusive) | AC50 (Cytochrome P450 1A2): 3.16 µM (inconclusive)

CCC(CC)NC(=O)CC(c1ccccc1)c1ccccc1
IC50 [1]: > 47.1 µM (inactive) | EC50 [2]: > 53 µM (inactive)

O=C(COc1cccc(NC(=O)c2cccc([N+](=O)[O-])c2)c1)c1ccc(Br)cc1
AC50 (Cytochrome P450 2D6): 3.16 µM (inconclusive) | AC50 (Cytochrome P450 1A2): 5.62 µM (inconclusive)

O=C(CN(C(=O)CSc1nc2ccccc2o1)c1cccc(F)c1)NC1CCCCC1
AC50 (Cytochrome P450 1A2): 20 µM (inconclusive)

CCC/C=C(\CCC)C(NC(=O)Cc1ccccc1)c1ccc(C(=O)OC)cc1 (stereo not given)
AC50 (Cytochrome P450 2D6): 5.01 µM (inconclusive) | AC50 (Cytochrome P450 1A2): 15.8 µM (inconclusive)

CCC/C=C(\CCC)C(NS(=O)(=O)c1ccc(-c2ccccc2)cc1)c1ccc(C(=O)OC)cc1 (stereo not given)
AC50 (Cytochrome P450 2D6): 39.8 µM (inconclusive) | AC50 (Cytochrome P450 1A2): 6.31 µM (inconclusive) | AC50 (Cytochrome P450 2C9): 3.16 µM (inconclusive)

CC(=O)Oc1ccc(-c2csc(Nc3cccc(C)n3)n2)cc1
AC50 [3]: 6.58 µM (active)

Cc1c(Cl)c([N+](=O)[O-])nn1CCCC(=O)Nc1cc(Oc2ccccc2)cc([N+](=O)[O-])c1
IC50 [1]: > 47.1 µM (inactive) | EC50 [2]: > 53 µM (inactive)

O=c1cc(N2CCCCC2)c(-c2ccccc2)nn1Cc1ccc(Cl)cc1
AC50 [3]: 2.33 µM (active)

COc1cccc(-c2csc(N3CCN(CC(=O)NNC(=O)c4ccc(Cl)cc4)CC3)n2)c1
AC50 (Cytochrome P450 1A2): 8.91 µM (inconclusive)

Cc1ccc(S(=O)(=O)N2CCN(C(=O)COc3ccc(NC(=O)c4ccco4)cc3)CC2)cc1
AC50 [3]: > 195 µM (inactive)

Cc1ccc(Cl)cc1N(CC(=O)N1CCOCC1)S(C)(=O)=O
IC50 [1]: > 47.1 µM (inactive) | EC50 [2]: > 53 µM (inactive)

COc1cc2c(cc1O)[C@H]1Cc3ccc(OC)c(O)c3CN1CC2
AC50 (Cytochrome P450 2C19): 7.94 µM (inconclusive) | AC50 (Cytochrome P450 1A2): 15.8 µM (inconclusive) | AC50 (Cytochrome P450 3A4): 12.6 µM (inconclusive)

COCCn1c(=O)c(-c2ccc(Cl)cc2)nc2cnc(Nc3ccccc3)nc21
AC50 (Cytochrome P450 1A2): 20 µM (inconclusive)

Cc1cccc(-c2cc3nc4c(c(NCc5ccco5)n3n2)CCCC4)c1
AC50 [3]: 7.11 µM (active)

COc1ccc(CC(NC(C)=O)C(=O)NC2CCN(C(=O)c3ccc(OC)c(OC)c3)CC2)cc1OC (stereo not given)
EC50 [4]: > 195 µM (not active)

CC(C)CN(CC(C)C)C(=O)CCCC(=O)N(CC(C)C)CC(C)C
IC50 [1]: > 47.1 µM (inactive) | EC50 [2]: > 53 µM (inactive)

O=C(NCC1CCCO1)c1onc(CSc2cccc3ccccc23)c1C(=O)O (stereo not given)
IC50 [1]: > 47.1 µM (inactive) | EC50 [2]: > 53 µM (inactive)

CCOC(=O)c1cc2c(=O)c3cc(C)ccc3oc2nc1C
IC50 [1]: > 47.1 µM (inactive) | EC50 [2]: > 53 µM (inactive)

CN1C(=O)c2ccccc2Sc2ccc(C(=O)N3CCC4(CC3)OCCO4)cc21
EC50 [4]: > 195 µM (not active) | AC50 (Cytochrome P450 3A4): 20 µM (inconclusive)

Cc1c(C(=O)Nc2nc(-c3ccccn3)cs2)oc2ccccc12
AC50 (INS1): 5.62 µM (active)

Cc1nn(C)cc1CN(C)C(=O)c1ccc(OC2CCN(Cc3ccccn3)CC2)cc1
IC50 [1]: > 47.1 µM (inactive) | EC50 [2]: > 53 µM (inactive)

FC(F)(F)c1cc(CCN2C(S)=NC[C@@H]2CC2CCCCC2)cc(C(F)(F)F)c1
EC50 [5]: 5.13 µM (active) | EC50 (Streptococcus): > 150 µM (not active) | AC50 [3]: 5.79 µM (active)

COC(=O)c1c(NC(=O)C(C)(C)C)sc2c1C(C(=O)OC)CC2 (stereo not given)
AC50 (Cytochrome P450 2C19): 14.1 µM (inconclusive) | AC50 (Cytochrome P450 1A2): 0.794 µM (inconclusive)

O=C(Oc1ccccc1)N1CCC[C@@]2(CCN(c3ccncc3)C2)C1
AC50 (Cytochrome P450 2D6): 20 µM (inconclusive) | AC50 (Cytochrome P450 1A2): 20 µM (inconclusive)

CC(C)(C)OC(=O)NCCc1nnc(SCC(=O)Nc2cccc(Cl)c2)o1
AC50 (Cytochrome P450 1A2): 25.1 µM (inconclusive) | AC50 (Cytochrome P450 2C9): 25.1 µM (inconclusive)

Cc1ccnc(NC(=O)c2cccc(S(=O)(=O)N3CCCC3)c2)c1
IC50 [1]: > 47.1 µM (inactive) | EC50 [2]: > 53 µM (inactive)

Nc1ccc(C#Cc2ccc3oc4ccccc4c(=O)c3c2)cc1
EC50 [5]: 2.5 µM (active) | EC50 (Streptococcus): 2.37 µM (active)

COc1ccc(CCNC(=O)C(=O)NCC2OCCN2S(=O)(=O)c2ccc(OC)cc2)cc1 (stereo not given)
IC50 [1]: > 47.1 µM (inactive) | EC50 [2]: > 53 µM (inactive)

O=c1c2ccccc2nc(/C=C/c2ccccc2)n1-c1ccccc1O
AC50 [3]: 4.57 µM (active)

CCOc1ccc(C(=O)CCC(=O)N2CCN(c3ccc(O)cc3)CC2)cc1
AC50 [3]: 5.57 µM (active)

O=C(C1CCCC1)N1CCCC(Nc2ccc(F)cc2)C1 (stereo not given)
EC50 [2]: > 53 µM (inactive)

C[C@]12c3[nH]c4ccccc4c3CCN1C(=O)C(CC(=O)NCC13C[C@H]4C[C@@H](C1)C[C@@H](C3)C4)C[C@@H]2C(=O)N1CCOCC1 (stereo not given in full)
EC50 [2]: > 53 µM (inactive)

CC(C)(C)OC(=O)NCc1ccc(NC(=O)c2[nH]cnc2C(=O)NCCCNC(=O)c2nc[nH]c2C(=O)Nc2ccc(CNC(=O)OC(C)(C)C)cc2)cc1
AC50 [3]: 1.75 µM (active)

COc1ncnc(OC)c1S(=O)(=O)Nc1ccc(C(F)(F)F)cc1
AC50 (INS1): > 260 µM (inactive)

CC1C(=O)N(Cc2cn(CCC3OCCCO3)nn2)CCS(=O)(=O)N1Cc1ccc(-c2ccc(Cl)cc2)cc1 (stereo not given)
IC50 [1]: > 47.1 µM (inactive) | EC50 [2]: > 53 µM (inactive)

Cc1onc(-c2ccccc2)c1C(=O)N/N=C/c1cc(Br)c(Br)o1
IC50 [1]: > 47.1 µM (inactive) | EC50 [2]: > 53 µM (inactive)

CN(C)C(=O)C1CC(=O)OC12CCCCC2 (stereo not given)
IC50 [1]: > 47.1 µM (inactive) | EC50 [2]: > 53 µM (inactive)

CC(=O)NCc1ccc(C(=O)O)cc1
IC50 [1]: > 47.1 µM (inactive) | EC50 [2]: > 53 µM (inactive)

C=C(CC[C@@H](O)C(C)(C)O)[C@H]1CC[C@]2(C)[C@@H]1CC[C@@H]1[C@@]3(C)CCC(=O)C(C)(C)C3CC[C@]12C (stereo not given in full)
AC50 [3]: 1.75 µM (active)

CNCC[C@@H](Oc1ccccc1C)c1ccccc1 [ATOMOXETINE]
AC50 (Cytochrome P450 1A2): 15.8 µM (inconclusive) | AC50 (Cytochrome P450 3A4): 12.6 µM (inconclusive)
